Data: the supplement of paper PMC11451515

What was measured:
Conditions in all cases: 48 h
[1] = system: NOMO1; experiment: cell viability relative to DMSO control; higher = less cytotoxic
Procedure, shortened: (§1)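 Viability, reported as a per-plate percentage of DMSO wells with cell-free wells as background, came from CellTiter-Glo One luminescence. Reading took place after 48 h at 37°C. Before that, NOMO1 or SEM (500 cells/well) or P12-Ichikawa (1000 cells/well) leukemia cells, adapted for at least four passages in each medium, were seeded in 1536-well plates (5 μl) and pin-dosed with library compounds in DMSO, 47 μM to 0.79 nM over 11 threefold points.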

[2] = system: P12-Ichikawa; experiment: as above
Procedure, shortened: as §1

[3] = system: SEM cells; experiment: as above
Procedure, shortened: as §1

[4] = system: NOMO1; experiment: AUC of viability dose-response curve (% viability x log10 dose units); higher = less sensitive
Procedure, shortened: (§2)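 Seeding of medium-adapted leukemia cells was at 500 or 1000 cells/well in 1536-well plates, followed by 48 h at 37°C with library compounds in DMSO at 11 threefold doses from 47 μM to 0.79 nM. CellTiter-Glo One luminescence was normalised per plate to DMSO and cell-free wells and fitted as a four-parameter log-logistic function of log10 dose. Area under the curve was integrated by trapezoidal rule, with curves exceeding full viability scaled and curves failing quality control removed.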

[5] = system: P12-Ichikawa; experiment: as above
Procedure, shortened: as §2

[6] = system: SEM cells; experiment: as above
Procedure, shortened: as §2

OCCCNc1cc(-c2ccnc(Nc3cccc(Cl)c3)n2)ccn1
cell viability [%]
Conditions | [1] | [2] | [3]
HPLM + 10% dialyzed FBS, 0.000781 µM | 106 | 98 | 86.3
HPLM + 10% dialyzed FBS, 0.00234 µM | 107 | 99.8 | 99.5
HPLM + 10% dialyzed FBS, 0.00702 µM | 119 | 107 | 110
HPLM + 10% dialyzed FBS, 0.0211 µM | 119 | 109 | 108
HPLM + 10% dialyzed FBS, 0.0632 µM | 114 | 110 | 121
HPLM + 10% dialyzed FBS, 0.19 µM | 80.4 | 113 | 45.7
HPLM + 10% dialyzed FBS, 0.569 µM | 14.1 | 65.4 | 10.1
HPLM + 10% dialyzed FBS, 1.71 µM | 7.46 | 13.6 | 8.28
HPLM + 10% dialyzed FBS, 5.12 µM | 8.09 | 10.3 | 6.56
HPLM + 10% dialyzed FBS, 15.4 µM | 6.31 | 8.26 | 5.81
HPLM + 10% dialyzed FBS, 46.1 µM | 4.31 | 7.93 | 3.56
RPMI 5 mM glucose + 10% FBS, 0.000781 µM | 92.2 | 102 | 103
RPMI 5 mM glucose + 10% FBS, 0.00234 µM | 98.4 | 105 | 125
RPMI 5 mM glucose + 10% FBS, 0.00702 µM | 117 | 105 | 125
RPMI 5 mM glucose + 10% FBS, 0.0211 µM | 111 | 104 | 123
RPMI 5 mM glucose + 10% FBS, 0.0632 µM | 107 | 118 | 143
RPMI 5 mM glucose + 10% FBS, 0.19 µM | 54.5 | 87.9 | 88.2
RPMI 5 mM glucose + 10% FBS, 0.569 µM | 18.8 | 55.6 | 10.4
RPMI 5 mM glucose + 10% FBS, 1.71 µM | 9.75 | 12.1 | 5.66
RPMI 5 mM glucose + 10% FBS, 5.12 µM | 8.02 | 7.63 | 6.14
RPMI 5 mM glucose + 10% FBS, 15.4 µM | 7.79 | 8.26 | 5.72
RPMI 5 mM glucose + 10% FBS, 46.1 µM | 4.61 | 5.79 | 3.94
RPMI 5 mM glucose + 10% dialyzed FBS, 0.000781 µM | 97.5 | 94.9 | 96.2
RPMI 5 mM glucose + 10% dialyzed FBS, 0.00234 µM | 95.8 | 106 | 105
RPMI 5 mM glucose + 10% dialyzed FBS, 0.00702 µM | 100 | 106 | 114
RPMI 5 mM glucose + 10% dialyzed FBS, 0.0211 µM | 106 | 119 | 113
RPMI 5 mM glucose + 10% dialyzed FBS, 0.0632 µM | 100 | 113 | 122
RPMI 5 mM glucose + 10% dialyzed FBS, 0.19 µM | 63.3 | 100 | 62.1
RPMI 5 mM glucose + 10% dialyzed FBS, 0.569 µM | 15.8 | 43.7 | 10.9
RPMI 5 mM glucose + 10% dialyzed FBS, 1.71 µM | 7.75 | 11.9 | 5.73
RPMI 5 mM glucose + 10% dialyzed FBS, 5.12 µM | 7.44 | 10.5 | 6.76
RPMI 5 mM glucose + 10% dialyzed FBS, 15.4 µM | 7.1 | 11 | 5.91
RPMI 5 mM glucose + 10% dialyzed FBS, 46.1 µM | 5.05 | 9.06 | 3.62

AUC of viability dose-response curve
Conditions | [4] | [5] | [6]
HPLM + 10% dialyzed FBS | 264 | 308 | 249
RPMI 5 mM glucose + 10% FBS | 258 | 294 | 260
RPMI 5 mM glucose + 10% dialyzed FBS | 262 | 295 | 254
